The assay deals with stratum corneum of viable human skin (abdominal or breast reduction plastic surgery). Put plainly: Desquamating activity: decrease in cohesion of the stratum corneum, histological score on excised human skin maintained under survival conditions. It counts as cell-based. The following applies: score 0-4; for Score 2: (mean ± sd, n = 6): Table 2, applied D0 and D1, analysed D2; for Score (mean ± sd, n = 6): Table 3 (white ginseng study). On the procedure:
The study aims to detect the desquamating potential of the combination of active agents according to the invention in simplex solution by observation of the cohesion of the stratum corneum.
The keratolytic effect on excised skin maintained under survival conditions […] was evaluated. The study was carried out on viable human skin resulting from abdominal or breast reduction plastic surgery (6 donors). These skin fragments were placed in inserts, comprising a porous membrane ([…]), themselves positioned on culture wells containing a culture medium as described in Boisnic et al., Journal of Cosmetics and laser therapy, 2010:12:25-31.
The protocol consists in applying the test solutions to skin samples maintained under survival conditions. The products tested are applied in a proportion of 15 μl per 1 cm^2 sample and are not rinsed off. Application is carried out twice, at D0 and then, 24 hours later, at D1. The morphology of the stratum corneum is analysed 48 hours after the first application, at D2, on a biopsy.
The solutions applied are the following: • compound A (plant active agent according to the invention) alone at 0.1% and 0.5% by weight of active material in water, and • compound B alone at 0.3% by weight in water • combination of A at 0.1% and B at 0.3% by weight in water • combination of A at 0.5% and B at 0.3% by weight in water.
By way of comparison, no solution is applied to a sample, referred to as a control sample, and a solution of glycolic acid at 30% by weight in water is applied to another sample. 6 samples were used for each of the tests (controls, compound A and compound B and combinations of A and B).
The histological analysis of the horny layer is carried out on a skin section after staining with hemalaun-eosin (magnification 400). The decrease in the cohesion of the stratum corneum is expressed in the form of a score: • score 0: absence of modification • score 1: slight decrease • score 2: moderate decrease • score 3: large decrease • score 4: very large decrease with exfoliation
A paired Student test (p<0.05) was carried out in order to evaluate the significance of the difference with respect to the control.
The protocol described in Example 2 was reproduced by considering a plant active agent not in accordance with the invention, namely white ginseng which is devoid of ginsenoside Rg3. This active agent considered is the product Ginseng ES, distributed by the company Greentech.

In the case of `CCCCCCCC(=O)c1ccc(O)c(C(=O)O)c1` [Compound B, 5-n-Octanoylsalicylic acid], where the note is “Compound B at 0.3% in H2O”, the “Score 2: (mean ± sd, n = 6)” value was found to be 2.14 ± 0.52 and the “Score (mean ± sd, n = 6)” value came to 1.75 ± 0.19.

Consider `O=C(O)CO` [Glycolic acid, glycolic acid], for which, where the note is “Glycolic acid at 30% in H2O”, the “Score 2: (mean ± sd, n = 6)” value was determined as 3.10 ± 0.12 and the “Score (mean ± sd, n = 6)” value was determined as 2.14 ± 0.41.

Source of the values: patent US20220079855A1, “GINGSENG-BASED COSMETIC COMPOSITION” (L'OREAL, priority 2018, published 2022).
